Article PMC12881674, “Activation of TRPV3 channels in bladder cancer cells stimulates ATP release” (Molecular Pharmacology, 2025)

Molecular target: T1, mouse TRPV4 (Mus musculus, UniProt Q9EPK8)
T1 construct: expressed in transfected cells; host or cells: HEK293
Assay: fluo-4 Ca2+ assay selectivity, HEK cells expressing mouse TRPV4
Assay type: cell-based
Conditions: concentrations up to 50 μM
From the text: KU-19-19 (DSMZ no. ACC 395), CAL-29 (DSMZ no. ACC 515), 647-V (DSMZ no. ACC 414), RT-4 (DSMZ no. ACC 412), and RT-112 (DSMZ no. ACC 418) bladder cancer cell lines were obtained from the Leibniz Institute DSMZ (German Collection of Microorganisms and Cell Cultures). Human TRPV3 (NM_145068, purchased from OriGene) and mouse TRPV3 (NM_001371006), rat TRPV1, mouse TRPV2, mouse TRPV4, human TRPM2, human TRPM8, and human TRPA1 were stably transfected in HEK293 cells as described before.[27] […]
All fluorometric Ca^2+ assays were performed in HBS buffer at room temperature. […] For the primary compound screening and the generation of concentration-response analyses, a robotic liquid handling station (Freedom Evo 150; Tecan) with a built-in custom-made fluorescence plate imager was used. […] Fluorescence was excited using a 470-nm light-emitting diode, and emitted light was imaged through a 515-nm–long pass filter with a cooled Zyla 5.5 camera (Andor). Fluorescence was recorded and processed under the control of the μ-Manager 2.0 gamma software (https://micro-manager.org.[28]). After recording baseline fluorescence, compounds were dispensed into the wells via the liquid handling device. […] For further analysis, fluorescence signals were calculated for each well, corrected for background intensities and normalized to the initial signals. […]

T1 sequence (Q9EPK8 whole entry): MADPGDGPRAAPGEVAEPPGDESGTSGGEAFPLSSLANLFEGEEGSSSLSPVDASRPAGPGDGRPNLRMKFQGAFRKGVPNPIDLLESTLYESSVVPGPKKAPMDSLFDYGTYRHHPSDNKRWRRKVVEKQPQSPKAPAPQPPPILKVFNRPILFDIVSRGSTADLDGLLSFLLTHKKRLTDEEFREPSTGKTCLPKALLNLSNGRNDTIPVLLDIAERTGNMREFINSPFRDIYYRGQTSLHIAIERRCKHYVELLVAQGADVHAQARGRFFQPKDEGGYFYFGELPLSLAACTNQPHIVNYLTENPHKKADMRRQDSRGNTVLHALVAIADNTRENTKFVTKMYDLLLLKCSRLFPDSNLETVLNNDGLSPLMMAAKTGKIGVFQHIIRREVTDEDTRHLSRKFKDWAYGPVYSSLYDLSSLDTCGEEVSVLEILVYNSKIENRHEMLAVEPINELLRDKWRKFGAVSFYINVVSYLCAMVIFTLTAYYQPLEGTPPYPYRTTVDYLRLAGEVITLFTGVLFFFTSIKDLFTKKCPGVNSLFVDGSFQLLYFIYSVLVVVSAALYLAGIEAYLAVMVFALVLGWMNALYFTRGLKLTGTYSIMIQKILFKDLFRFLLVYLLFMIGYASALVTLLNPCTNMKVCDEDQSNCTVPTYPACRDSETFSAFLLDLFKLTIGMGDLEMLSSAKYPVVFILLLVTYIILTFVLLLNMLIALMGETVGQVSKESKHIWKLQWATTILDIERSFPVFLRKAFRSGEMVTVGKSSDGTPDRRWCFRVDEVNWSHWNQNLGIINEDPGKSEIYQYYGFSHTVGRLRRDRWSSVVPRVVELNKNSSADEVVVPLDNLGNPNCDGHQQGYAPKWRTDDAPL

COC(=O)C12CN(Cc3ccccc3)CC1(C(=O)OC)CN(Cc1ccccc1)C2 (stereo not shown) [AV3-1]
effect on TRPV4: no effect
